Source: patent US8853246B2 (Dow AgroSciences LLC, priority 2009, dated 2014)

What was measured:
[1] = system: Sweetpotato Whitefly-Crawler (Bemisia Tabaci); experiment: Insecticidal test for sweetpotato whitefly-crawler in foliar spray assay (col. BEMITA); assay type: in vivo; settings: Bemisia tabaci, sweetpotato whitefly-crawler, read-out: BEMITA 200 ppm (Corrected % Control, rating)
Method: (§1) The compounds were tested against cotton aphid, green peach aphid, and sweet potato whitefly using procedures described in the following examples and reported in Table 2.
(§2) In each case of Table 2, the rating scale is as follows at 200 ppm.
Insecticidal Test for Sweetpotato Whitefly-Crawler (Bemisia Tabaci) in Foliar Spray Assay
Cotton plants grown in 3-inch pots, with 1 small (3-5 cm) true leaf, were used as test substrate. The plants were placed in a room with whitefly adults. Adults were allowed to deposit eggs for 2-3 days. After a 2-3 day egg-laying period, plants were taken from the adult whitefly room. Adults were blown off leaves using a hand-held Devilbiss sprayer (23 psi). Plants with egg infestation (100-300 eggs per plant) were placed in a holding room for 5-6 days at 82° F. and 50% RH for egg hatch and crawler stage to develop. Four cotton plants were used for each treatment. Compounds (2 mg) were dissolved in 1 mL of acetone solvent, forming stock solutions of 2000 ppm. The stock solutions were diluted 10× with 0.025% Tween 20 in H2O to obtain a test solution at 200 ppm. A hand-held Devilbiss sprayer was used for spraying a solution to both sides of cotton leaf until runoff. Reference plants (solvent check) were sprayed with the diluent only. Treated plants were held in a holding room for 8-9 days at approximately 82° F. and 50% RH prior to grading. Evaluation was conducted by counting the number of live nymphs per plant under a microscope. Insecticidal activity was measured by using Abbott's correction formula and presented in Table 2 (see col. “BEMITA”): Corrected % Control=100*(X−Y)/X • where X=No. of live nymphs on solvent check plants • Y=No. of live nymphs on treated plants Pesticidally Acceptable Acid Addition Salts, Salt Derivatives, Solvates, Ester Derivatives, Polymorphs, Isotopes and Radionuclides

[2] = system: Green Peach Aphid (Myzus Persicae); experiment: Insecticidal test for green peach aphid in foliar spray assay (col. MYZUPE); assay type: in vivo; settings: Myzus persicae, 72 h, green peach aphid, read-out: MYZUPE 200 ppm (Corrected % Control, rating)
Method: as §1, §2
Insecticidal Test for Green Peach Aphid (Myzus Persicae) in Foliar Spray Assay
Cabbage seedlings grown in 3-inch pots, with 2-3 small (3-5 cm) true leaves, were used as test substrate. The seedlings were infested with 20-50 green peach aphids (wingless adult and nymph) one day prior to chemical application. Four pots with individual seedlings were used for each treatment. Compounds (2 mg) were dissolved in 2 mL of acetone/methanol (1:1) solvent, forming stock solutions of 1000 ppm. The stock solutions were diluted 5× with 0.025% Tween 20 in H2O to obtain a test solution at 200 ppm. A hand-held Devilbiss sprayer was used for spraying a solution to both sides of cabbage leaves until runoff. Reference plants (solvent check) were sprayed with the diluent only. Treated plants were held in a holding room for three days at approximately 25° C. and 40% relative humidity (RH) prior to grading. Evaluation was conducted by counting the number of live aphids per plant under a microscope. Corrected % Control=100*(X−Y)/X • where X=No. of live aphids on solvent check plants • Y=No. of live aphids on treated plants

Row | Compound | pest or weed control at 200 ppm [1] | pest or weed control at 200 ppm [2]
1 | CC(C[S+](C)[O-])C(=O)N(C)c1sc(-c2cccnc2)nc1C(F)(F)F (centres unmarked) [Compound 89] | 80 to 100% | < 80%
2 | Cc1nc(-c2cccnc2)sc1N(C)C(=O)CC[S+](C)[O-] (centres unmarked) [Compound 90] | 80 to 100% | 80 to 100%
3 | Cc1nc(-c2cncc(F)c2)sc1N(C)C(=O)CC[S+](C)[O-] (centres unmarked) [Compound 91] | 80 to 100% | 80 to 100%
4 | Cc1nc(-c2cccnc2)sc1N(C)C(=O)CCS(C)(=O)=O [Compound 95, 3-methanesulfonyl-N-methyl-N-(4-methyl-2-pyridin-3-yl-thiazol-5-yl)-propionamide] | 80 to 100% | 80 to 100%
5 | Cc1nc(-c2cccnc2)sc1N(C)C(=O)C(C)(C)CS(C)(=O)=O [Compound 97] | 80 to 100% | 80 to 100%
6 | CSCC(C)C(=O)Nc1sc(-c2cccnc2)nc1C(F)(F)F (centres unmarked) [Compound 134] | < 80% | 80 to 100%
7 | CSCC(C)(C)C(=O)Nc1sc(-c2cccnc2)nc1C(F)(F)F [Compound 135] | < 80% | 80 to 100%
8 | COc1cncc(-c2nc(C)c(NC(=O)C(C)CSC)s2)c1 (centres unmarked) [Compound 137] | < 80% | < 80%
9 | C=CCSCC(C)C(=O)N(C)c1sc(-c2cccnc2)nc1C (centres unmarked) [Compound 138] | 80 to 100% | 80 to 100%
10 | CSCC(C)(C)C(=O)Nc1sc(-c2cncc(F)c2)nc1C [Compound 139] | 80 to 100% | 80 to 100%
11 | CSCC(C)C(=O)N(C(=O)C(C)C)c1sc(-c2cncc(S(C)(=O)=O)c2)nc1C (centres unmarked) [Compound 152] | < 80% | < 80%
12 | CSCC(C)C(=O)N(C(=O)OC(C)(C)C)c1sc(-c2cccnc2F)nc1C (centres unmarked) [Compound 154] | < 80% | < 80%
13 | CCOC(=O)c1cncc(-c2nc(C)c(N(C(=O)OC(C)(C)C)C(=O)C(C)CSC)s2)c1 (centres unmarked) [Compound 155] | < 80% | < 80%
14 | CSCC(C)C(=O)N(C(=O)OC(C)(C)C)c1sc(-c2cncc(C)c2)nc1C (centres unmarked) [Compound 156, [4-methyl-2-(5-methyl-pyridin-3-yl)-thiazol-5-yl]-(2-methyl-3-methylsulfanyl-propionyl)-carbamic acid tert-butyl ester] | < 80% | 80 to 100%
15 | CSCC(C)C(=O)N(C(=O)OC(C)(C)C)c1sc(-c2cncc(S(C)(=O)=O)c2)nc1C (centres unmarked) [Compound 157] | < 80% | < 80%
16 | Cc1nc(-c2ccc(F)nc2)sc1N(C(=O)C(C)C)C(=O)C(C)C [Compound 162] | 80 to 100% | 80 to 100%
17 | Cc1nc(-c2cncc(F)c2)sc1NC(=O)C(C)CS(C)(=O)=NC#N (centres unmarked) [Compound 164, 3-[cyano(methyl)sulfonimidoyl]-N-[2-(5-fluoropyridin-3-yl)-4-methyl-1,3-thiazol-5-yl]-2-methylpropanamide] | < 80% | 80 to 100%
18 | Cc1nc(-c2cncc(F)c2)sc1N(C)C(=O)OC(C)(C)C [Compound 165] | 80 to 100% | 80 to 100%
19 | Cc1nc(-c2cncc(F)c2)sc1N(C)C(=O)C(C)CS(=O)(Cc1ccc(Cl)nc1)=NC#N (centres unmarked) [Compound 167] | 80 to 100% | < 80%
20 | Cc1nc(-c2cncc(F)c2)sc1N(C)C(=O)C(C)CS(C)(=O)=NC#N (centres unmarked) [Compound 168] | 80 to 100% | 80 to 100%

Row | Compound | pest or weed control at 200 ppm [1] | pest or weed control at 200 ppm [2]
21 | CCOC(=O)c1cncc(-c2nc(C)c(NC(=O)C(C)CSC)s2)c1 (centres unmarked) [Compound 170] | < 80% | < 80%
22 | CSCC(C)C(=O)Nc1sc(-c2cncc(C)c2)nc1C (centres unmarked) [Compound 171, 2-methyl-N-[4-methyl-2-(5-methyl-pyridin-3-yl)-thiazol-5-yl]-3-methylsulfanyl-propionamide] | < 80% | 80 to 100%
23 | CSCC(C)C(=O)N(C(=O)C(C)CSC)c1sc(-c2cccnc2)nc1C (centres unmarked) [Compound 173] | 80 to 100% | 80 to 100%
24 | CN(C(=O)CC[S+](C)[O-])c1sc(-c2cccnc2)nc1Cl (centres unmarked) [Compound 174] | 80 to 100% | 80 to 100%
25 | COc1cncc(-c2nc(C)c(N(C(=O)OC(C)(C)C)C(=O)C(C)CSC)s2)c1 (centres unmarked) [Compound 176] | < 80% | < 80%
26 | CSCC(C)C(=S)Nc1sc(-c2cccnc2)nc1C (centres unmarked) [Compound 180, 2-methyl-N-(4-methyl-2-pyridin-3-yl-thiazol-5-yl)-3-methylsulfanyl-thiopropionamide] | 80 to 100% | 80 to 100%
27 | CSCC(C)C(=O)N(C(=O)C(C)C)c1sc(-c2cccnc2)nc1C (centres unmarked) [Compound 183] | 80 to 100% | 80 to 100%
28 | CSCC(C)C(=O)N(C(C)=O)c1sc(-c2cccnc2)nc1C (centres unmarked) [Compound 184] | 80 to 100% | 80 to 100%
29 | CSCCC(=O)N(C(=O)CCSC)c1sc(-c2cncc(F)c2)nc1C [Compound 185] | 80 to 100% | 80 to 100%
30 | CSCC(C)C(=O)N(C(=O)C(C)CSC)c1sc(-c2cncc(F)c2)nc1C (centres unmarked) [Compound 188] | 80 to 100% | 80 to 100%
31 | COC(=O)CCC(=O)N(C(=O)C(C)CSC)c1sc(-c2cccnc2)nc1C (centres unmarked) [Compound 189] | 80 to 100% | 80 to 100%
32 | Cc1nc(-c2cncc(F)c2)sc1N(C)C(=O)C(C)CSCc1ccc(Cl)cc1 (centres unmarked) [Compound 190] | 80 to 100% | 80 to 100%
33 | CCCC(C)(C)OC(=O)Nc1sc(-c2cccnc2)nc1C [Compound 192] | 80 to 100% | 80 to 100%
34 | Cc1nc(-c2cccnc2)sc1N(C)C(=O)[C@H](C)NC(=O)OC(C)(C)C [Compound 194] | 80 to 100% | 80 to 100%
35 | CSCC(C)C(=O)N(C(=O)C(C)(C)CSC)c1sc(-c2cccnc2)nc1C (centres unmarked) [Compound 195] | 80 to 100% | 80 to 100%
36 | COCN(C(=O)C(C)CSC)c1sc(-c2cccnc2)nc1C (centres unmarked) [Compound 196] | 80 to 100% | 80 to 100%
37 | Cc1nc(-c2cccnc2)sc1NC(=O)OC1(C)CCCCC1 [Compound 198] | 80 to 100% | 80 to 100%
38 | CSCC(C)C(=O)N(C(=O)C(C)C)c1sc(-c2cncc(F)c2)nc1C (centres unmarked) [Compound 200] | 80 to 100% | 80 to 100%
39 | CSCC(C)C(=O)N(COC(=O)c1ccccc1)c1sc(-c2cccnc2)nc1C (centres unmarked) [Compound 203, Benzoic acid [(2-methyl-3-methylsulfanyl-propionyl)-(4-methyl-2-pyridin-3-yl-thiazol-5-yl)-amino]-methyl ester] | 80 to 100% | 80 to 100%
40 | C=CC(=O)N(C(=O)C(C)CSC)c1sc(-c2cccnc2)nc1C (centres unmarked) [Compound 204] | < 80% | 80 to 100%
